Here are results for ten molecules from ChEMBL document CHEMBL1201862, “PubChem BioAssay data set” (2004).

Molecules are shown by their SMILES.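 Growth conditions: 96-well plates. Treatment: test compound, 48 hours, 5 concentrations. Analysis: linear interpolation between bracketing concentrations; unreached endpoints set to highest concentration. Abbreviation: GI50, concentration required for 50% inhibition of growth.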 Active and inactive are the calls of the source. Rule as the data show it: active = GI50 up to about 1.1 µM and inactive = higher.

Among the test systems are HCC 2998; NCI-H23; NCI-H226; CAKI-1; SNB-75; SNB-19; OVCAR-5; NCI-H522; SK-MEL-5; SW-620; UACC-62; DU-145; BT-549; HCT-15; ACHN; A549; MCF7; OVCAR-8; T47D; HCT-116.
What all share (assay): DTP human tumour cell line panel, 48 h

For orientation: GI50 means the concentration that inhibits growth by half. For `NC(=O)C1=C(O)C[C@@H]2CC3Cc4cccc(O)c4C(=O)C3=C(O)[C@]2(O)C1=O` (stereo partly specified), the GI50 in the assay with HCC 2998 is 3.1 µM (inactive); with NCI-H23, 1.85 µM (inactive); with NCI-H226, 2.23 µM (inactive); in the assay with CAKI-1, 10.6 µM (inactive); in the assay on SNB-75, 2.43 µM (inactive); in the assay on SNB-19, 1.88 µM (inactive). Further, the GI50 in the assay with OVCAR-5 is 0.449 µM (active); in the assay with NCI-H522 it was 1.89 µM (inactive); in the assay on SK-MEL-5, 1.36 µM (inactive); with SW-620 it was 3.57 µM (inactive); with UACC-62, 2.15 µM (inactive); with DU-145, 3.16 µM (inactive). In addition, the GI50 in the assay on BT-549 is 1.87 µM (inactive); in the assay on HCT-15, 0.479 µM; in the assay with ACHN it was 1.07 µM (active); in the assay with A549 it was 0.592 µM (active); in the assay with MCF7, 1.79 µM (inactive); with OVCAR-8, 2.92 µM (inactive). Moreover, the GI50 in the assay on T47D is 2.63 µM (inactive); in the assay with HCT-116, 1.8 µM (inactive).
For the molecule `CCOC(=O)C(NC(=O)CC)(Nc1ccc(F)c(Cl)c1)C(F)(F)F` (stereo unspecified), the GI50 in the assay on HCC 2998, in the assay on NCI-H226, in the assay with CAKI-1, with SNB-75, in the assay with SNB-19 and in the assay on OVCAR-5 was > 100 µM (inactive) each time. For the same molecule, the GI50 in the assay on NCI-H522 is > 100 µM (inactive); with SK-MEL-5 it was > 67.6 µM (inactive); in the assay on SW-620 it was > 100 µM (inactive); in the assay with UACC-62, 34.4 µM (inactive); with DU-145, > 100 µM (inactive); with BT-549, > 100 µM (inactive). Also, the 50% growth inhibitory concentration (GI50) is more than 83.4 µM in the assay on HCT-15; > 55.8 µM (inactive) in the assay with ACHN; > 100 µM (inactive) with A549; > 100 µM (inactive) in the assay on MCF7; > 100 µM (inactive) in the assay on OVCAR-8; > 100 µM (inactive) with T47D. In the assay on HCT-116, the GI50 is > 100 µM (inactive).
As for `CC(C)CCC1(O)O[C@H]2C[C@H]3[C@@H]4CCC5CC(=O)C=C[C@]5(C)[C@H]4CC[C@]3(C)[C@H]2[C@@H]1C` (stereo partly specified), the GI50 in the assay on HCC 2998 is 0.148 µM (active); in the assay on NCI-H23, 4.26 µM (inactive); with NCI-H226 it was 0.612 µM (active); in the assay on CAKI-1 it was 14.5 µM (inactive); with SNB-75, 14.3 µM (inactive); in the assay with SNB-19, 17.5 µM (inactive). Besides, the GI50 was 13.1 µM (inactive) in the assay with OVCAR-5; 1.8 µM (inactive) with NCI-H522; 13.7 µM (inactive) in the assay with SK-MEL-5; 12.1 µM (inactive) in the assay on SW-620; 14.6 µM (inactive) in the assay with UACC-62; 14.7 µM (inactive) in the assay with DU-145. The GI50 was 14.3 µM (inactive) with BT-549; 11.2 µM in the assay with HCT-15; 13.7 µM (inactive) in the assay with ACHN; 14.7 µM (inactive) in the assay with A549; 7.73 µM (inactive) in the assay with MCF7; 14.2 µM (inactive) in the assay with OVCAR-8. The GI50 is 12 µM (inactive) with T47D and 6.79 µM (inactive) in the assay on HCT-116.
For `CCCCC1NC=Nc2c1ccc1c2[nH]c2ccccc21` (stereo unspecified), the GI50 in the assay on HCC 2998 is 1.71 µM (inactive); in the assay with NCI-H23, 1.73 µM (inactive); in the assay with NCI-H226, 7.62 µM (inactive); in the assay on CAKI-1, 3.77 µM (inactive); with SNB-75, 4.02 µM (inactive); in the assay with SNB-19, 4.58 µM (inactive). Moreover, the GI50 in the assay with OVCAR-5 is 4.63 µM (inactive); in the assay on NCI-H522 it was 1.84 µM (inactive); in the assay on SK-MEL-5 it was 1.58 µM (inactive); in the assay with SW-620 it was 1.95 µM (inactive); with UACC-62 it was 4.27 µM (inactive); in the assay with DU-145, 2.6 µM (inactive). Besides, the GI50 with BT-549 is 2.02 µM (inactive); in the assay on HCT-15, 2.39 µM; in the assay with ACHN, 3.61 µM (inactive); in the assay on A549 it was 2.3 µM (inactive); in the assay with MCF7, 1.55 µM (inactive); in the assay on OVCAR-8 it was 2.03 µM (inactive). Further, the GI50 in the assay with T47D is 1.45 µM (inactive); in the assay with HCT-116, 1.91 µM (inactive).
Turning to `O=C(O)CCCSc1ccccc1`, the GI50 with HCC 2998, in the assay on NCI-H23, in the assay with NCI-H226, with CAKI-1, with SNB-75 and with SNB-19 was > 100 µM (inactive) throughout. The GI50 with OVCAR-5, in the assay on NCI-H522, in the assay with SK-MEL-5, in the assay with SW-620, with UACC-62 and in the assay with DU-145 was > 100 µM (inactive) throughout. For the same molecule, the GI50 with BT-549 was > 100 µM (inactive); in the assay on HCT-15, more than 100 µM; with ACHN, > 100 µM (inactive); with A549, > 100 µM (inactive); in the assay on MCF7, > 100 µM (inactive); in the assay on OVCAR-8, > 100 µM (inactive). Moreover, the GI50 with T47D and in the assay with HCT-116 was > 100 µM (inactive) in each case.
Take `CC(Oc1ccc(Cl)cc1Cl)C(=O)NN1C(=O)CSC1c1ccccc1` (stereo unspecified): the GI50 is > 100 µM (inactive) with HCC 2998; 86.5 µM (inactive) with NCI-H23; 24.2 µM (inactive) with NCI-H226; 20.4 µM (inactive) in the assay on CAKI-1; 34.7 µM (inactive) with SNB-75; 47.6 µM (inactive) in the assay on SNB-19. In addition, the GI50 in the assay on OVCAR-5 was > 100 µM (inactive); in the assay with NCI-H522 it was 56.2 µM (inactive); in the assay with SK-MEL-5, 70.8 µM (inactive); in the assay on SW-620, > 100 µM (inactive); in the assay with UACC-62 it was 50.2 µM (inactive); with DU-145 it was 91 µM (inactive). Further, the GI50 in the assay with BT-549 was 24 µM (inactive); in the assay with HCT-15, more than 100 µM; in the assay on ACHN, 68.5 µM (inactive); in the assay on A549, 39.3 µM (inactive); in the assay on MCF7, 55.3 µM (inactive); in the assay with OVCAR-8, 51.1 µM (inactive). For the same molecule, the values for the GI50 in the assay on T47D and with HCT-116 were 56.8 µM (inactive) and 45.7 µM (inactive), respectively.
For `C#CC(O)/C=C/CCCCCCC#CC/C=C\CC#CCCCCCCCCC(O)C#C` (stereo unspecified), the GI50 was 3.63 µM (inactive) in the assay with HCC 2998; 1.02 µM (active) with NCI-H23; 15.6 µM (inactive) in the assay on NCI-H226; 4.29 µM (inactive) in the assay on CAKI-1; 9.1 µM (inactive) in the assay with SNB-75; 20 µM (inactive) in the assay with SNB-19. For the same molecule, the GI50 in the assay on OVCAR-5 is 12.8 µM (inactive); in the assay on NCI-H522, 0.174 µM (active); in the assay on SK-MEL-5, 2.68 µM (inactive); in the assay with SW-620 it was 3.5 µM (inactive); with UACC-62, 9.08 µM (inactive); in the assay with DU-145, 5.83 µM (inactive). In addition, the GI50 with BT-549 was 6.71 µM (inactive); in the assay with HCT-15, 3.27 µM; in the assay with ACHN it was 12.2 µM (inactive); in the assay on A549 it was 8.43 µM (inactive); in the assay with MCF7, 17.4 µM (inactive); with OVCAR-8, 1.91 µM (inactive). Also, the GI50 in the assay with T47D is 10.5 µM (inactive); in the assay on HCT-116, 2.28 µM (inactive).
With `Nc1c(F)c(F)c2c(c1F)N(CCCCCl)c1ccccc1S2`, the GI50 was > 100 µM (inactive) in the assay with HCC 2998; > 100 µM (inactive) in the assay on NCI-H23; > 100 µM (inactive) with NCI-H226; > 100 µM (inactive) with CAKI-1; 74.6 µM (inactive) in the assay on SNB-75; > 100 µM (inactive) with SNB-19. Besides, the GI50 with OVCAR-5, in the assay with NCI-H522, in the assay with SK-MEL-5, with SW-620, in the assay on UACC-62 and in the assay with DU-145 was > 100 µM (inactive) in each case. The GI50 in the assay on BT-549 is > 100 µM (inactive); in the assay with HCT-15 it was more than 100 µM; with ACHN, > 100 µM (inactive); in the assay with A549, > 100 µM (inactive); in the assay on MCF7 it was > 100 µM (inactive); in the assay on T47D, > 100 µM (inactive). The GI50 in the assay on HCT-116 is > 100 µM (inactive).
For the molecule `CN(C(=O)CC(=O)CP(=O)(c1ccccc1)c1ccccc1)c1ccccc1`, the GI50 with HCC 2998, in the assay with NCI-H23, in the assay with NCI-H226, with CAKI-1, with SNB-75 and in the assay on SNB-19 was > 100 µM (inactive) each time. Further, the GI50 with NCI-H522, in the assay with SK-MEL-5, in the assay with SW-620, in the assay with UACC-62, in the assay on DU-145 and with BT-549 was > 100 µM (inactive) throughout. Further, the GI50 with HCT-15 is more than 100 µM; in the assay on ACHN, > 100 µM (inactive); in the assay with A549, > 100 µM (inactive); with MCF7, > 100 µM (inactive); in the assay with OVCAR-8 it was > 100 µM (inactive); with T47D, > 100 µM (inactive). In the assay on HCT-116, the GI50 is > 100 µM (inactive).
On to `O=C1NC(=S)N/C1=C\c1cc2c(=O)c3ccccc3sc2s1`, for which the GI50 was 71.1 µM (inactive) in the assay on HCC 2998; 52.8 µM (inactive) in the assay with NCI-H23; > 100 µM (inactive) in the assay on NCI-H226; > 100 µM (inactive) in the assay with CAKI-1; 26.4 µM (inactive) in the assay on SNB-75; 33.4 µM (inactive) with SNB-19. In addition, the GI50 with OVCAR-5 was > 100 µM (inactive); in the assay on NCI-H522, 71 µM (inactive); in the assay on SK-MEL-5, > 100 µM (inactive); with SW-620, 57.8 µM (inactive); with UACC-62, 29.4 µM (inactive); in the assay on DU-145 it was > 100 µM (inactive). For the same molecule, the GI50 was 35 µM (inactive) in the assay on BT-549; more than 100 µM with HCT-15; 60.8 µM (inactive) in the assay with ACHN; 35.8 µM (inactive) with MCF7; 57.5 µM (inactive) in the assay on OVCAR-8; > 100 µM (inactive) in the assay on T47D. Further, the GI50 in the assay on HCT-116 is 36.4 µM (inactive).
